{
  "source": "patent US6984486B1",
  "about": "“Synthetic peptide of regulatory virus protein R (VPR) of human immunodeficiency virus type 1 (HIV-1) and the utilization thereof” (J. David Gladstone Institutes, priority 1999, dated 2006)",
  "key": {"[1]": {"system": "vpr deficient HIV-1 mutant viruses", "settings": "primary human monocytes/macrophages from different donors, vpr-deficient mutant NL(AD8)deltaR, two months", "description": "Parallel cultures of differentiated MDM isolated from three different donors were infected with equal infectious doses of purified virus stocks of the macrophage-tropic virus NL4-3(AD8) as well as the vpr-deficient mutant NL(AD8)deltaR. Virus production was followed over a time frame of two months and release of virus associated RT-activity was plotted against time."}, "HIV-1NL4-3": {"system": "HIV-1NL4-3", "settings": "cultures of human PBMC, 10 nM peptide", "description": "(§1) Cultures of PHA- and IL-2-activated PBMCs were infected with equal infectious doses of the following virus stocks: HIV-1NL4-3 (A, B, C), NL4-3(AD8) (D) as well as the vpu-deficient mutant NL(AD8)-UDEL1 (E), and the vpr-deficient mutant NL(AD8)deltaR (F)."}, "human PBMC": {"system": "human PBMC", "settings": "cultures of human PBMC infected with HIV-1NL4-3, 10 nM peptide", "description": "as §1"}, "[2]": {"settings": "compared with native viral Vpr"}},
  "data": [
    {"substance": "H-Met-Glu-Gln-Ala-Pro-Glu-Asp-Gln-Gly-Pro-Gln-Arg-Glu-Pro-Tyr-Asn-Gln-Trp-Thr-Leu-Glu-Leu-Leu-Glu-Glu-Leu-Lys-Ser-Glu-Ala-Val-Arg-His-Phe-Pro-Arg-Ile-Trp-Leu-His-Asn-Leu-Gly-Gln-His-Ile-Tyr-Glu-Thr-Tyr-Gly-Asp-Thr-Trp-Ala-Gly-Val-Glu-Ala-Ile-Ile-Arg-Ile-Leu-Gln-Gln-Leu-Leu-Phe-Ile-His-Phe-Arg-Ile-Gly-Cys-Arg-His-Ser-Arg-Ile-Gly-Val-Thr-Arg-Gln-Arg-Arg-Ala-Arg-Asn-Gly-Ala-Ser-Arg-Set-OH [sVpr^1-96]", "values": [
      {"measurement": "virus replication (release of virus associated RT-activity)", "setting": "[1]", "result": "activates virus replication"},
      {"measurement": "virus replication (virus associated RT-activity released into cell culture supernatant)", "setting": "HIV-1NL4-3", "result": "activates virus replication"},
      {"measurement": "number of live cells", "setting": "human PBMC", "result": "increases the number of live cells"},
      {"measurement": "biological activities", "setting": "[2]", "result": "comparable to native viral Vpr"}
    ]}
  ]
}
